Source: US12281149B2, “Modulators of G-protein coupled receptors” (priority 2021, dated 2025)
*1 amine or outer side, *2 acyl side, *3 side chain or, on linkers, in order; H or OH if unused. Where a SMILES comes first, the peptide text is derived from it. Side-chain parts run from the residue outwards. [ ]: non-standard residue; d: D form. The star is where a group is joined. C20 diacid = O=C(O)CCCCCCCCCCCCCCCCCCC(=O)*; γGlu = O=C(O)[C@H](CCC(=O)[*:2])N[*:1]; X34 = CCC(CC)(C(=O)*)c1ccc(Cl)c(Cl)c1; X20 = O=C(C1(c2ccc(Cl)cc2)CCOCC1)*; X36 = O=C(C1(c2ccc(Cl)cc2)CCCCC1)*; X39 = CCC(CC)(C(=O)*)c1ccc(Cl)cc1; X53 = CC(C)(C(=O)*)c1cc(F)cc(F)c1; AEEA = NCCOCCOCC(=O)O; Aib = CC(C)(N)C(=O)O; βAla = NCCC(=O)O

Experiments:
Format in all cases: cell-based
[1] = molecular target: T1, GLP-1 receptor (Homo sapiens, UniProt P43220); test: HitHunter cAMP assay, GLP-1 receptor; conditions: for EC50: CHO cells stably expressing human GLP-1 receptor, cAMP accumulation, 30 min, read-out: EC50 GLP-1R; for Emax: CHO cells, cAMP, normalized to maximum signal from GLP-1 (high) and DMSO (low), read-out: Emax GLP-1R
[2] = molecular target: T2, GIP receptor (Homo sapiens, UniProt P48546); test: PathHunter β-arrestin assay, GIP receptor; set-up: host or cells: PathHunter CHO-K1 GIPR β-Arrestin Cell Line; conditions: β-arrestin-2 recruitment, PathHunter CHO-K1 GIPR β-Arrestin Cell Line, 90 min at 37° C.; normalized to GIP; read-out: GIPR β Arrestin EC50
T2 sequence (P48546 22-466): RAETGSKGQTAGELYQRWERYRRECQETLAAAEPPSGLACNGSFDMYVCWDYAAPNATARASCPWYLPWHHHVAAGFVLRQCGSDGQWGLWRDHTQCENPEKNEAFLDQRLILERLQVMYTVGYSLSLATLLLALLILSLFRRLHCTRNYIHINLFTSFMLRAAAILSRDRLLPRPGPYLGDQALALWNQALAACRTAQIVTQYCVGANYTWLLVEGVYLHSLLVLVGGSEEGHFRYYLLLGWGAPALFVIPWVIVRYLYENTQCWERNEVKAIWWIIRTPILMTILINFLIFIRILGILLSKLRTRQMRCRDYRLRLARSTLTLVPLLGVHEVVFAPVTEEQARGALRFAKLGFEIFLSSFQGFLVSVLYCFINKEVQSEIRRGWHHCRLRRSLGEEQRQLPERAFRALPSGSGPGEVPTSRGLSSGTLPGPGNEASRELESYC

[3] = molecular target: T2, GIP receptor; test: HitHunter cAMP assay, GIP receptor; conditions: for EC50: CHO cells stably expressing GIP receptor, cAMP accumulation, 30 min, read-out: EC50 GIP-1R; for Emax: CHO cells, cAMP, normalized to maximum signal from GIP (high) and DMSO (low), read-out: Emax GIP-1R
[4] = molecular target: T1, GLP-1 receptor; test: PathHunter β-arrestin assay, GLP-1 receptor; set-up: host or cells: PathHunter CHO-K1 GLP1R β-Arrestin Cell Line; conditions: β-arrestin-2 recruitment, PathHunter CHO-K1 GLP1R β-Arrestin Cell Line, 90 min at 37° C.; normalized to GLP-1; read-out: GLP-1R β Arrestin EC50

T1 sequence (P43220 24-463): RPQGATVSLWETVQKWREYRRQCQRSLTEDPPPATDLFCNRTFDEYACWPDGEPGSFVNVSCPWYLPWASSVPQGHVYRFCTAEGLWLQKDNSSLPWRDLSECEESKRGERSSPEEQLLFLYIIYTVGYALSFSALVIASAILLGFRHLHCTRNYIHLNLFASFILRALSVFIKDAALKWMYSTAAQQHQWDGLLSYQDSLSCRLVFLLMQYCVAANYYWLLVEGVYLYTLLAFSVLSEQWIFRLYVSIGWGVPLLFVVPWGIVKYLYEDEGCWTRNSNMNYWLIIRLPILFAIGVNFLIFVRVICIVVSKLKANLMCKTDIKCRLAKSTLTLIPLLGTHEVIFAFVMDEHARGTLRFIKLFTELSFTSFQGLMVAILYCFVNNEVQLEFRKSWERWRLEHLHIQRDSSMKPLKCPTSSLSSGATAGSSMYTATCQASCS

Row | SMILES | EC50 [1] [nM] | Emax [1] [%] | EC50 [2] [nM] | EC50 [3] [nM] | Emax [3] [%] | EC50 [4] [nM]
1 | CC[C@H](C)[C@H](NC(=O)[C@H](CC(C)C)NC(=O)[C@H](Cc1c[nH]c2ccccc12)NC(=O)[C@H](CCC(N)=O)NC(=O)[C@@H](NC(=O)[C@H](Cc1ccccc1)NC(=O)[C@H](C)NC(=O)[C@H](CCCCNC(=O)COCCOCCNC(=O)COCCOCCNC(=O)CC[C@H](NC(=O)CCCCCCCCCCCCCCCCCCC(=O)O)C(=O)O)NC(=O)[C@H](CCC(N)=O)NC(=O)[C@H](C)NC(=O)[C@@H](NC(=O)[C@H](CCCCN)NC(=O)[C@H](CC(=O)O)NC(=O)[C@H](CC(C)C)NC(=O)C(C)(C)NC(=O)[C@@H](NC(=O)[C@H](CO)NC(=O)[C@H](Cc1ccc(O)cc1)NC(=O)[C@H](CC(=O)O)NC(=O)[C@H](CO)NC(=O)[C@@H](NC(=O)[C@H](Cc1ccccc1)NC(=O)[C@@H](NC(=O)CNC(=O)[C@H](CCC(=O)O)NC(=O)CCNC(=O)C1(c2ccc(Cl)cc2)CCOCC1)[C@@H](C)O)[C@@H](C)O)[C@@H](C)CC)[C@@H](C)CC)C(C)C)C(=O)N[C@@H](C)C(=O)NCC(=O)NCC(=O)N1CCC[C@H]1C(=O)N[C@@H](CO)C(=O)N[C@@H](CO)C(=O)NCC(=O)N[C@@H](C)C(=O)N1CCC[C@H]1C(=O)N1CCC[C@H]1C(=O)N1CCC[C@H]1C(=O)N[C@@H](CO)C(N)=O [Compound 172] ({X20-βAla}-EGTFTSDYSI[Aib]LDKIAQK([AEEA-AEEA-γGlu-C20 diacid])AFVQWLIAGGPSSGAPPPS-NH2) | 1 to 10 | 89 | > 1000 | 1 to 10 | 109 | > 1000
2 | CC[C@H](C)[C@H](NC(=O)[C@H](CC(C)C)NC(=O)[C@H](Cc1c[nH]c2ccccc12)NC(=O)[C@H](CCC(N)=O)NC(=O)[C@@H](NC(=O)[C@H](Cc1ccccc1)NC(=O)[C@H](C)NC(=O)[C@H](CCCCNC(=O)COCCOCCNC(=O)COCCOCCNC(=O)CC[C@H](NC(=O)CCCCCCCCCCCCCCCCCCC(=O)O)C(=O)O)NC(=O)[C@H](CCC(N)=O)NC(=O)[C@H](C)NC(=O)[C@@H](NC(=O)[C@H](CCCCN)NC(=O)[C@H](CC(=O)O)NC(=O)[C@H](CC(C)C)NC(=O)C(C)(C)NC(=O)[C@@H](NC(=O)[C@H](CO)NC(=O)[C@H](Cc1ccc(O)cc1)NC(=O)[C@H](CC(=O)O)NC(=O)[C@H](CO)NC(=O)[C@@H](NC(=O)[C@H](Cc1ccccc1)NC(=O)[C@@H](NC(=O)CNC(=O)[C@H](CCC(=O)O)NC(=O)CCNC(=O)C(C)(C)c1cc(F)cc(F)c1)[C@@H](C)O)[C@@H](C)O)[C@@H](C)CC)[C@@H](C)CC)C(C)C)C(=O)N[C@@H](C)C(=O)NCC(=O)NCC(=O)N1CCC[C@H]1C(=O)N[C@@H](CO)C(=O)N[C@@H](CO)C(=O)NCC(=O)N[C@@H](C)C(=O)N1CCC[C@H]1C(=O)N1CCC[C@H]1C(=O)N1CCC[C@H]1C(=O)N[C@@H](CO)C(N)=O [Compound 173] ({X53-βAla}-EGTFTSDYSI[Aib]LDKIAQK([AEEA-AEEA-γGlu-C20 diacid])AFVQWLIAGGPSSGAPPPS-NH2) | < 0.1 | 98 | > 1000 | 1 to 10 | 103 | > 1000
3 | CC[C@H](C)[C@H](NC(=O)[C@H](CC(C)C)NC(=O)[C@H](Cc1c[nH]c2ccccc12)NC(=O)[C@H](CCC(N)=O)NC(=O)[C@@H](NC(=O)[C@H](Cc1ccccc1)NC(=O)[C@H](C)NC(=O)[C@H](CCCCNC(=O)COCCOCCNC(=O)COCCOCCNC(=O)CC[C@H](NC(=O)CCCCCCCCCCCCCCCCCCC(=O)O)C(=O)O)NC(=O)[C@H](CCC(N)=O)NC(=O)[C@H](C)NC(=O)[C@@H](NC(=O)[C@H](CCCCN)NC(=O)[C@H](CC(=O)O)NC(=O)[C@H](CC(C)C)NC(=O)C(C)(C)NC(=O)[C@@H](NC(=O)[C@H](CO)NC(=O)[C@H](Cc1ccc(O)cc1)NC(=O)[C@H](CC(=O)O)NC(=O)[C@H](CO)NC(=O)[C@@H](NC(=O)[C@H](Cc1ccccc1)NC(=O)[C@@H](NC(=O)CNC(=O)[C@H](CCC(=O)O)NC(=O)CCNC(=O)C1(c2ccc(Cl)cc2)CCCCC1)[C@@H](C)O)[C@@H](C)O)[C@@H](C)CC)[C@@H](C)CC)C(C)C)C(=O)N[C@@H](C)C(=O)NCC(=O)NCC(=O)N1CCC[C@H]1C(=O)N[C@@H](CO)C(=O)N[C@@H](CO)C(=O)NCC(=O)N[C@@H](C)C(=O)N1CCC[C@H]1C(=O)N1CCC[C@H]1C(=O)N1CCC[C@H]1C(=O)N[C@@H](CO)C(N)=O [Compound 174] ({X36-βAla}-EGTFTSDYSI[Aib]LDKIAQK([AEEA-AEEA-γGlu-C20 diacid])AFVQWLIAGGPSSGAPPPS-NH2) | 10 to 100 | 93 | > 1000 | 10 to 100 | 104 | > 1000
4 | CC[C@H](C)[C@H](NC(=O)[C@H](CC(C)C)NC(=O)[C@H](Cc1c[nH]c2ccccc12)NC(=O)[C@H](CCC(N)=O)NC(=O)[C@@H](NC(=O)[C@H](Cc1ccccc1)NC(=O)[C@H](C)NC(=O)[C@H](CCCCNC(=O)COCCOCCNC(=O)COCCOCCNC(=O)CC[C@H](NC(=O)CCCCCCCCCCCCCCCCCCC(=O)O)C(=O)O)NC(=O)[C@H](CCC(N)=O)NC(=O)[C@H](C)NC(=O)[C@@H](NC(=O)[C@H](CCCCN)NC(=O)[C@H](CC(=O)O)NC(=O)[C@H](CC(C)C)NC(=O)C(C)(C)NC(=O)[C@@H](NC(=O)[C@H](CO)NC(=O)[C@H](Cc1ccc(O)cc1)NC(=O)[C@H](CC(=O)O)NC(=O)[C@H](CO)NC(=O)[C@@H](NC(=O)[C@H](Cc1ccccc1)NC(=O)[C@@H](NC(=O)CNC(=O)[C@H](CCC(=O)O)NC(=O)CCNC(=O)C(CC)(CC)c1ccc(Cl)c(Cl)c1)[C@@H](C)O)[C@@H](C)O)[C@@H](C)CC)[C@@H](C)CC)C(C)C)C(=O)N[C@@H](C)C(=O)NCC(=O)NCC(=O)N1CCC[C@H]1C(=O)N[C@@H](CO)C(=O)N[C@@H](CO)C(=O)NCC(=O)N[C@@H](C)C(=O)N1CCC[C@H]1C(=O)N1CCC[C@H]1C(=O)N1CCC[C@H]1C(=O)N[C@@H](CO)C(N)=O [Compound 175] ({X34-βAla}-EGTFTSDYSI[Aib]LDKIAQK([AEEA-AEEA-γGlu-C20 diacid])AFVQWLIAGGPSSGAPPPS-NH2) | 1 to 10 | 94 | < 1000 | 1 to 10 | 110 | > 1000
5 | CC[C@H](C)[C@H](NC(=O)[C@H](CC(C)C)NC(=O)[C@H](Cc1c[nH]c2ccccc12)NC(=O)[C@H](CCC(N)=O)NC(=O)[C@@H](NC(=O)[C@H](Cc1ccccc1)NC(=O)[C@H](C)NC(=O)[C@H](CCCCNC(=O)COCCOCCNC(=O)COCCOCCNC(=O)CC[C@H](NC(=O)CCCCCCCCCCCCCCCCCCC(=O)O)C(=O)O)NC(=O)[C@H](CCC(N)=O)NC(=O)[C@H](C)NC(=O)[C@@H](NC(=O)[C@H](CCCCN)NC(=O)[C@H](CC(=O)O)NC(=O)[C@H](CC(C)C)NC(=O)C(C)(C)NC(=O)[C@@H](NC(=O)[C@H](CO)NC(=O)[C@H](Cc1ccc(O)cc1)NC(=O)[C@H](CC(=O)O)NC(=O)[C@H](CO)NC(=O)[C@@H](NC(=O)[C@H](Cc1ccccc1)NC(=O)[C@@H](NC(=O)CNC(=O)[C@H](CCC(=O)O)NC(=O)CCNC(=O)C(CC)(CC)c1ccc(Cl)cc1)[C@@H](C)O)[C@@H](C)O)[C@@H](C)CC)[C@@H](C)CC)C(C)C)C(=O)N[C@@H](C)C(=O)NCC(=O)NCC(=O)N1CCC[C@H]1C(=O)N[C@@H](CO)C(=O)N[C@@H](CO)C(=O)NCC(=O)N[C@@H](C)C(=O)N1CCC[C@H]1C(=O)N1CCC[C@H]1C(=O)N1CCC[C@H]1C(=O)N[C@@H](CO)C(N)=O [Compound 176] ({X39-βAla}-EGTFTSDYSI[Aib]LDKIAQK([AEEA-AEEA-γGlu-C20 diacid])AFVQWLIAGGPSSGAPPPS-NH2) | 1 to 10 | 110 | < 1000 | 1 to 10 | 110 | > 1000
